The values below come from ChEMBL document CHEMBL5050861 (2021).

Values after ≈ are worked out from the molar mass of the structure shown. Some results are limits rather than exact numbers.

Series [1] can be described thus: Inhibition of recombinant mouse GALK1 using ATP as substrate incubated for 1 hr and measured by Kinase-Glo assay. For orientation: In Kinase-Glo more light means more ATP remaining.
The nature of series [2]: Stability of compound in rat microsomes assessed as half-life. Type of series: ADME, Microsome.
The nature of series [3]: Kinetic aqueous solubility of the compound. The format is physicochemical. The following applies: buffer; read-out: Kinetic_solubility.

The term IC50 denotes the midpoint of a concentration-inhibition curve. The half-life is the time in which the quantity being followed falls by half. With `CCn1cc(CNC(=O)C2=C(C)NC(Nc3nc4ccc(F)c(N)c4o3)=N[C@@H]2c2ccc(C)cc2Cl)cn1`, the IC50 in series [1] (read-out: IC50) stood at 10.9 µM. In series [2], the half-life was 8.62 min. Moreover, in series [3], the solubility kinetic is < 1 µg/mL.
Taken in the same sequence, the figures for `COC(=O)c1ccccc1CNC(=O)C1=C(C)NC(Nc2nc3ccccc3o2)=NC1c1ccccc1Cl` (configuration not stated) were 4.32 µM, 1.74 min and < 1 µg/mL.
For `CC1=C(C(=O)Nc2nncs2)C(c2ccccc2C)N=C(Nc2nc3ccccc3o2)N1` (configuration not stated), in that order: 21.7 µM, > 30 min and < 1 µg/mL.
For `CC1=C(C(=O)Nc2ccc(F)cc2)C(c2ccccc2Cl)N=C(Nc2nc3ccccc3o2)N1` (configuration not stated), in that order: 12.2 µM, > 30 min and < 1 µg/mL.
`O=C1NCCC2=C1C(c1ccccc1Cl)N=C(Nc1nc3ccccc3o1)N2` (configuration not stated): in series [1] (read-out: IC50), the IC50 was found to be 21.7 µM. For the same compound, in series [2], the half-life was 27.1 min. Besides, the solubility kinetic in series [3] is < 1 µg/mL.
Taken in the same sequence, the figures for `COc1ccccc1CNC(=O)C1=C(C)NC(Nc2nc3ccccc3o2)=NC1c1ccccc1Cl` (configuration not stated) were 12.2 µM, 1.4 min and < 1 µg/mL.
For the compound `CC1=C(C(=O)Nc2cccc(C(N)=O)c2)C(c2ccccc2Cl)N=C(Nc2nc3ccccc3o2)N1` (configuration not stated), the IC50 in series [1] (read-out: IC50) came out at 17.2 µM. Also, the half-life in series [2] was > 30 min. Moreover, in series [3], the solubility kinetic is < 1 µg/mL.
For `CC1=C(C(=O)Nc2cc(C(=O)O)ccn2)C(c2ccc(C)cc2Cl)N=C(Nc2nc3cccc(N)c3o2)N1` (racemic), in that order: 1.72 µM, > 30 min and > 78 µg/mL.
Taken in the same sequence, the figures for `COc1ccc(C2N=C(Nc3nc4ccccc4o3)NC(C)=C2C(=O)Nc2nncs2)c(Cl)c1` (configuration not stated) were 5.44 µM, > 30 min and < 1 µg/mL.
For `COC(=O)c1ccc(NC(=O)C2=C(C)NC(Nc3nc4ccccc4o3)=NC2c2ccccc2Cl)cc1` (configuration not stated), in that order: 9.68 µM, 17.7 min and < 1 µg/mL.
For `CC1=C(C(=O)Nc2ccccc2Cl)C(c2ccccc2Cl)N=C(Nc2nc3ccccc3o2)N1` (configuration not stated), the IC50 entry in series [1] is “Not Active”. Further, the half-life in series [2] is 28.7 min. The solubility kinetic in series [3] is < 1 µg/mL.
As for `COC(=O)c1csc(NC(=O)C2=C(C)NC(Nc3nc4ccccc4o3)=NC2c2ccccc2Cl)n1` (configuration not stated), the IC50 in series [1] (read-out: IC50) is 13.7 µM. For the same compound, the half-life in series [2] is > 30 min. Also, the solubility kinetic in series [3] is < 1 µg/mL.
Taken in the same sequence, the figures for `CCn1cc(CNC(=O)C2=C(C)NC(Nc3nc4cccc(N)c4o3)=NC2c2ccc(Cl)cc2Cl)cn1` (configuration not stated) were 8.63 µM, 14.1 min and 4.6 µg/mL (≈ 8.53 µM).
Taken in the same sequence, the figures for `CC1=C(C(=O)NCc2cnn(C)c2)[C@@H](c2ccc(C)cc2Cl)N=C(Nc2nc3cccc(N)c3o2)N1` were 30.6 µM, 7.87 min and 21.9 µg/mL (≈ 43.4 µM).
Taken in the same sequence, the figures for `CC1=C(C(=O)NCc2cn(C)cn2)[C@H](c2ccccc2Cl)N=C(Nc2nc3ccccc3o2)N1` were 4.32 µM, 5.62 min and 46.1 µg/mL (≈ 96.9 µM).
Regarding `CC1=C(C(=O)Nc2cccnc2)C(c2ccccc2Cl)N=C(Nc2nc3ccccc3o2)N1` (configuration not stated), the IC50 in series [1] (read-out: IC50) was determined as 12.2 µM. Further, in series [2], the half-life stood at 20 min. Further, the solubility kinetic in series [3] is < 1 µg/mL.
For `CC1=C(C(=O)NCc2cnn(C)c2)C(c2ccccc2Cl)N=C(Nc2nc3cccc(N)c3o2)N1` (configuration not stated), in that order: 3.43 µM, > 30 min and > 72 µg/mL.
Taken in the same sequence, the figures for `CC1=C(C(=O)Nc2nnc(-c3ccncc3)s2)C(c2ccccc2Cl)N=C(Nc2nc3ccccc3o2)N1` (configuration not stated) were 19.3 µM, > 30 min and < 1 µg/mL.
For `O=C(Nc1nncs1)C1=C(c2cnccn2)NC(Nc2nc3ccccc3o2)=NC1c1ccccc1Cl` (configuration not stated), in that order: 21.7 µM, > 30 min and 2.1 µg/mL (≈ 3.96 µM).
Take `COc1ccc(Cl)c(C2N=C(Nc3nc4ccccc4o3)NC(C)=C2C(=O)Nc2nncs2)c1` (configuration not stated): the concentration for half-maximal inhibition (IC50) in series [1] (read-out: IC50) was 17.2 µM. The half-life in series [2] is > 30 min. Moreover, the solubility kinetic in series [3] was < 1 µg/mL.
For the compound `CC1=C(C(=O)Nc2cc(C(=O)O)ccn2)C(c2cc(C(=O)O)ccc2Cl)N=C(Nc2nc3ccc(F)cc3o2)N1` (configuration not stated), the half-maximal inhibitory concentration (IC50) in series [1] (read-out: IC50) is 12.2 µM. Moreover, in series [2], the half-life is > 30 min. Besides, the solubility kinetic in series [3] is > 83 µg/mL.
On to `CC1=C(C(=O)NCc2cnn(Cc3ccccc3)c2)C(c2ccc(C)cc2Cl)N=C(Nc2nc3ccc(F)cc3o2)N1` (configuration not stated), for which the IC50 in series [1] (read-out: IC50) was 5.44 µM. The half-life in series [2] worked out at 2.74 min. In addition, the solubility kinetic in series [3] was < 1 µg/mL.
In the case of `CC1=C(C(=O)Nc2cc(C(=O)O)ccn2)C(c2ccc(N3CCCCC3)cc2Cl)N=C(Nc2nc3ccc(F)cc3o2)N1` (configuration not stated), the IC50 in series [1] (read-out: IC50) was determined as 12.2 µM. In addition, the half-life in series [2] was > 30 min. Also, the solubility kinetic in series [3] was found to be 1.92 µg/mL (≈ 3.18 µM).
Taken in the same sequence, the figures for `CC1=C(C(=O)Nc2nncs2)C(c2nn(C)cc2Cl)N=C(Nc2nc3ccccc3o2)N1` (configuration not stated) were 17.2 µM, > 30 min and 12.8 µg/mL (≈ 27.2 µM).
Taken in the same sequence, the figures for `CC1=C(C(=O)Nc2ccc(CO)nc2)C(c2ccccc2Cl)N=C(Nc2nc3ccccc3o2)N1` (configuration not stated) were 7.69 µM, > 30 min and < 1 µg/mL.
Taken in the same sequence, the figures for `CNC(=O)c1ccnc(NC(=O)C2=C(C)NC(Nc3nc4ccccc4o3)=NC2c2ccccc2Cl)c1` (configuration not stated) were 10.9 µM, > 30 min and < 1 µg/mL.
On to `CC1=C(C(=O)Nc2ccc(CO)cn2)C(c2ccccc2Cl)N=C(Nc2nc3ccc(F)cc3o2)N1` (configuration not stated), for which, in series [1] (read-out: IC50), the IC50 was 19.3 µM. The half-life in series [2] is > 30 min. For the same compound, the solubility kinetic in series [3] is < 1 µg/mL.
For `CC1=C(C(=O)NCc2cnn(C)c2)C(c2ccccc2Cl)N=C(Nc2nc3ccc(F)cc3o2)N1` (configuration not stated), in that order: 12.2 µM, 26 min and 13.7 µg/mL (≈ 27.7 µM).
Taken in the same sequence, the figures for `CN(C)C(=O)C1CC(=O)C2=C(C1)NC(Nc1nc3ccccc3o1)=NC2c1ccccc1Cl` (configuration not stated) were 4.32 µM, 20.8 min and 10.8 µg/mL (≈ 23.4 µM).
For `CC1=C(C(=O)Nc2nncs2)C(c2cc(Cl)ccc2Cl)N=C(Nc2nc3ccccc3o2)N1` (configuration not stated), the 50% inhibitory concentration (IC50) in series [1] (read-out: IC50) was 10.9 µM. The half-life in series [2] is > 30 min. The solubility kinetic in series [3] was < 1 µg/mL.
For `CC1=C(C(=O)Nc2ccccc2F)C(c2ccccc2Cl)N=C(Nc2nc3ccccc3o2)N1` (configuration not stated), in that order: 9.68 µM, > 30 min and < 1 µg/mL.
Taken in the same sequence, the figures for `CC1=C(C(=O)Nc2nncs2)C(c2ncccc2Br)N=C(Nc2nc3ccccc3o2)N1` (configuration not stated) were 6.85 µM, > 30 min and 3 µg/mL (≈ 5.87 µM).
Consider `CC1=C(C(=O)NCc2ccc(F)cc2)C(c2ccccc2Cl)N=C(Nc2nc3ccccc3o2)N1` (configuration not stated), for which, in series [1], the IC50 entry is listed as “Not Active”. In addition, the half-life in series [2] came to 11.3 min. The solubility kinetic in series [3] was < 1 µg/mL.
On to `O/N=C1\CCCC2=C1C(c1ccccc1Cl)N=C(Nc1nc3ccccc3o1)N2` (configuration not stated), for which, in series [1] (read-out: IC50), the IC50 came to 10.9 µM. The half-life in series [2] was 5.48 min. The solubility kinetic in series [3] was < 1 µg/mL.
